Entries after “also recorded” stand apart in the source; their conditions may differ. Blank lines part the entries; values can stand above or below the molecule they belong to.
Legend:
[1] = target: T1, human GPR84 (Homo sapiens, UniProt Q9NQS5); test: cell-based; assay type: cell-based; conditions: for Emax: read-out: efficacy (Emax), cAMP assay; for EC50: CHO cells expressing human GPR84, forskolin 10 μM
Target sequence in this assay (Q9NQS5 whole entry): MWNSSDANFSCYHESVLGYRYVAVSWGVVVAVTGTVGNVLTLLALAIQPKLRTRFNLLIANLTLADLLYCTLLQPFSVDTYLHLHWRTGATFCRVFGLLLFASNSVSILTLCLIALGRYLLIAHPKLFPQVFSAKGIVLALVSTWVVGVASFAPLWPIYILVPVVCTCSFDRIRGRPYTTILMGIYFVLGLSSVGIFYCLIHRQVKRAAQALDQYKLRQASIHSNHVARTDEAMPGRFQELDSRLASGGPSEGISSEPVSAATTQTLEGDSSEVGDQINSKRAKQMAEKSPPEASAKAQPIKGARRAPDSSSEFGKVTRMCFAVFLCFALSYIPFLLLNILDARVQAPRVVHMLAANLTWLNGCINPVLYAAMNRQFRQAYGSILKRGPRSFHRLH

[2] = system: CHO wild-type (wt) cells; test: cAMP accumulation assay in wild-type CHO cells not expressing GPR84
[3] = metabolic stability in human liver microsomes; assay type: in vitro ADME; conditions: for metabolic stability, in words: human liver microsomes 0.5 mg/mL, compound 1 μM; for degradation after an incubation period of 60 min: human liver microsomes; for degradation after 30 min of incubation, in words: human microsomes
[4] = target: T1, human GPR84; test: cell-based; conditions: EC50 ± SEM, β-arrestin assay, CHO cells expressing human GPR84
Target sequence in this assay (Q9NQS5 whole entry): as above
Target sequence in this assay (P32121 whole entry partner): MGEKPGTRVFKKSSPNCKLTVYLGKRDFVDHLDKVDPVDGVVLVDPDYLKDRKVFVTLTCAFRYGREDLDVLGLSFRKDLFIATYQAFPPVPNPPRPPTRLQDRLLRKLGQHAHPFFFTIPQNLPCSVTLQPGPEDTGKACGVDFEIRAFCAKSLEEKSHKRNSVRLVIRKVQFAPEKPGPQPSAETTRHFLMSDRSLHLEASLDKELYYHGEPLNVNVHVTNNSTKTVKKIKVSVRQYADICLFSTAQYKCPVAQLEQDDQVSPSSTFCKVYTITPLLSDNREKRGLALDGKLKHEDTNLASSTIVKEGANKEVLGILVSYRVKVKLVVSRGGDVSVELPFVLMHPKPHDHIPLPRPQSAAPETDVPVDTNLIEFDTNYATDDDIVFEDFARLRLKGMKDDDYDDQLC

[5] = target: T1, human GPR84; conditions: compound 10 μM
Target sequence in this assay (Q9NQS5 whole entry): as the sequence (Q9NQS5 whole entry) above
Target sequence in this assay (P32121 whole entry partner): as the sequence (P32121 whole entry partner) above

[6] = system: human GPR84; test: pathway bias calculation, Gi; assay type: cell-based; conditions: corresponding to the bias factor
[7] = system: rodents; conditions: orally, acute exposure; cited from earlier work
[8] = system: X-linked inhibitor of apoptosis; conditions: read-out: IC50, X-linked inhibitor of apoptosis; cited from earlier work
[9] = high concentrations of up to 100 μM
[10] = both, human, pooled human liver microsomes

Structure (SMILES): CCCCCCCCNc1cc(=O)[nH]c(=O)[nH]1 [Compound 4, 6-octylaminouracil]
Emax [1]: 104%
effect in nontransfected CHO cells (cAMP assay) [2]: no effect
effect on forskolin-induced cAMP accumulation in CHO wt cells ([2]; concentrations of up to 1 μM): None of the tested compounds showed any significant effect
effect on forskolin-induced cAMP accumulation in CHO wt cells [2, 9]: no effect

Structure (SMILES): CCCCCCNc1cc(=O)[nH]c(=O)[nH]1 [Compound 20, 6-Hexylamino-2,4(1H,3H)-pyrimidinedione]
metabolic stability, in words [3]: metabolically stable; also recorded: highly stable
degradation after an incubation period of 60 min [3]: negligible
degradation after 30 min of incubation, in words [3]: no degradation
Emax [1]: 127%
effect on forskolin-induced cAMP accumulation in CHO wt cells ([2]; concentrations of up to 1 μM): None of the tested compounds showed any significant effect
effect on forskolin-induced cAMP accumulation in CHO wt cells [2, 9]: no effect

Structure (SMILES): CCCCCCCCCNc1cc(=O)[nH]c(=O)[nH]1 [Compound 22, 6-Nonylamino-2,4(1H,3H)-pyrimidinedione]
half-life at 1 μM [3, 10]: 2 min
microsomal CLint at 1 μM [3, 10]: 880 µL/min/mg
EC50 [4]: 34 ± 7 nM
Emax [1]: 118%

Structure (SMILES): CCCCCCCCCCNc1cc(=O)n(C)c(=O)[nH]1 [Compound 33, 6-Decylamino-3-methyl-2,4(1H,3H)-pyrimidinedione]
percent receptor activation at 10 μM, β-arrestin assay [5]: 8%
EC50 [4]: > 10000 nM
EC50 ([1]; EC50 ± SEM, cAMP assay): 1900 ± 680 nM
Emax [1]: 72%

Structure (SMILES): CCCCCCCCCCCC1=C(O)C(=O)C=C(O)C1=O [embelin (6), embelin]
dose found to be safe [7]: up to 3 g/kg
IC50 [8]: 4100 nM

Structure (SMILES): Oc1cc(NCCc2ccccc2)nc(O)n1 [Compound 42, 6-(2-Phenylethylamino)-2,4(1H,3H)-pyrimidinedione]
metabolic stability, in words [3]: highly stable
degradation after an incubation period of 60 min [3]: negligible
degradation after 30 min of incubation, in words [3]: no degradation

The next lines start with results.

EC50 [4]: 120 ± 50 nM
EC50 ([1]; EC50, cAMP assay): < 10 nM
Emax [1]: 136%
Structure (SMILES): CCc1ccc(CCNc2cc(=O)[nH]c(=O)[nH]2)cc1 [Compound 49, 6-(p-Ethylphenylethylamino)-2,4(1H,3H)-pyrimidinedione]
effect on forskolin-induced cAMP accumulation in CHO wt cells ([2]; concentrations of up to 1 μM): None of the tested compounds showed any significant effect

percent receptor activation at 10 μM, β-arrestin assay [5]: 28%
EC50 [4]: > 10000 nM
EC50 ([1]; EC50 ± SEM, cAMP assay): 810 ± 230 nM
Emax [1]: 116%
Structure (SMILES): COc1ccc(CCNc2cc(=O)[nH]c(=O)[nH]2)cc1OC [Compound 60, 6-(m,p-Dimethoxyphenethylamino)-2,4(1H,3H)-pyrimidinedione]

percent receptor activation at 10 μM, β-arrestin assay [5]: 14%
EC50 [4]: > 10000 nM
Structure (SMILES): O=c1cc(NCCc2c[nH]c3ccccc23)[nH]c(=O)[nH]1 [Compound 62, 6-(1H-Indol-3-ylethylamino)-2,4(1H,3H)-pyrimidinedione]

degradation after an incubation period of 60 min [3]: negligible
degradation after 30 min of incubation, in words [3]: no degradation
Emax [1]: 127%
Structure (SMILES): O=c1cc(NCCc2ccc(Br)cc2)[nH]c(=O)[nH]1 [Compound 48, 6-(p-Bromophenylethylamino)-2,4(1H,3H)-pyrimidinedione]
metabolic stability, in words [3]: metabolically stable; also recorded: highly stable
preference for Gi coupling versus β-arrestin recruitment [6]: 20 fold
effect on forskolin-induced cAMP accumulation in CHO wt cells ([2]; concentrations of up to 1 μM): None of the tested compounds showed any significant effect

Emax [1]: 137%
Structure (SMILES): O=c1cc(NCCc2ccc(Cl)cc2)[nH]c(=O)[nH]1 [Compound 47, 6-((p-chlorophenylethyl)amino)-2,4(1H,3H)-pyrimidinedione]
preference for Gi coupling versus β-arrestin recruitment [6]: 79 fold
effect on forskolin-induced cAMP accumulation in CHO wt cells ([2]; concentrations of up to 1 μM): None of the tested compounds showed any significant effect
